Blank lines part the entries; values can stand above or below the compound they belong to. Active and inactive are the calls of the source. The calls are words filed in the database; no cut-off is given here.
What was measured:
[1] = biological target: Cyclin-dependent kinase 2/cyclin E (Homo sapiens, UniProt P24941); assay: Inhibition of CDK2/Cyclin E after 60 mins by fluorescence electrophoresis; assay type: protein-complex assay
cells = conditions: Mus musculus, Sal
Cytochrome P450 2C19 = Cytochrome P450 2C19 (Homo sapiens, UniProt P33261); assay: Inhibition of CYP2C19; assay type: ADME
Sequence of Cytochrome P450 2C19 (P33261 whole entry): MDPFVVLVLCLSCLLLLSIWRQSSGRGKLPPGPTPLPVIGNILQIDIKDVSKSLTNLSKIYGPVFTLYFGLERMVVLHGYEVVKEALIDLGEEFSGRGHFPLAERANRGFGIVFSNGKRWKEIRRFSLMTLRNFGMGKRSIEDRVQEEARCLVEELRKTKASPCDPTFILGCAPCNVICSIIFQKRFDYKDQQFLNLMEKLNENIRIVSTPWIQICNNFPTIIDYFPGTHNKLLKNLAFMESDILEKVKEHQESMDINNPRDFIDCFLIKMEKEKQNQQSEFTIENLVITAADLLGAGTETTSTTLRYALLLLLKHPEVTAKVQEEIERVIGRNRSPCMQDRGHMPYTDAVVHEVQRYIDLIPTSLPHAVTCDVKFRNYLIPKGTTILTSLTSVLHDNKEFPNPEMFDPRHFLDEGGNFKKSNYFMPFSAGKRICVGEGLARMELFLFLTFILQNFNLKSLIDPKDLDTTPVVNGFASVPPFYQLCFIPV

Cytochrome P450 2C9 = Cytochrome P450 2C9 (Homo sapiens, UniProt P11712); assay: Inhibition of CYP2C9; assay type: ADME
Cytochrome P450 2D6 = Cytochrome P450 2D6 (Homo sapiens, UniProt P10635); assay: Inhibition of CYP2D6; assay type: ADME
Cytochrome P450 1A2 = Cytochrome P450 1A2 (Homo sapiens, UniProt P05177); assay: Inhibition of CYP1A2; assay type: ADME
Sequence of Cytochrome P450 1A2 (P05177 whole entry): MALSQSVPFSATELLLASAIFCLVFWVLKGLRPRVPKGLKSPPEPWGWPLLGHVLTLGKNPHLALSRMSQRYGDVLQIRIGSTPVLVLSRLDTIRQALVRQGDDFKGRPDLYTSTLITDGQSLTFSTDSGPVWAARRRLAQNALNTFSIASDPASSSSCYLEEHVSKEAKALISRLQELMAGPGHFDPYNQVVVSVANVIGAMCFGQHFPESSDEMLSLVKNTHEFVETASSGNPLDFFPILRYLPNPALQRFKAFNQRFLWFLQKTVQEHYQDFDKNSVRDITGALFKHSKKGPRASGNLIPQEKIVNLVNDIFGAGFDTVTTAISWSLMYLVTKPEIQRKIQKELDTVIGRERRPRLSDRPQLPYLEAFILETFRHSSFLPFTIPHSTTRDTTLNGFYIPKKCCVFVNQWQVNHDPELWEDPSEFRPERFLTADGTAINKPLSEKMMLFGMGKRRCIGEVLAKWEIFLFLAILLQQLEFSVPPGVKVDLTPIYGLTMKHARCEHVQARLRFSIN

[2] = biological target: RAC-alpha serine/threonine-protein kinase (Mus musculus, UniProt P31750); assay: Inhibition of Akt phosphorylation in mouse Sal cells by Western blotting; assay type: cell-based
Sequence of RAC-alpha serine/threonine-protein kinase (P31750 whole entry): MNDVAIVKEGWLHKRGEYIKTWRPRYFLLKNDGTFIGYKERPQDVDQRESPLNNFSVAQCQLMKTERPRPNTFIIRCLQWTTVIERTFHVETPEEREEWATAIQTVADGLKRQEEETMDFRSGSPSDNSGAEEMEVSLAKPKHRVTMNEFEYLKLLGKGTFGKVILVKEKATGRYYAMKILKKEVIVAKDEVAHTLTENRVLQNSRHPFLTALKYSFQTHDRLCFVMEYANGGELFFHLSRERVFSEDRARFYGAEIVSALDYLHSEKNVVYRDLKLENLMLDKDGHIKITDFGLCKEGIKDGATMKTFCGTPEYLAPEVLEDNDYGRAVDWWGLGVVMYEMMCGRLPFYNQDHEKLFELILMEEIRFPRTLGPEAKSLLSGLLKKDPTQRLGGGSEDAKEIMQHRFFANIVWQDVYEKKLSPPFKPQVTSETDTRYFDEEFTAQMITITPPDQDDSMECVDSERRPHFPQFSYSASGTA

[3] = Antitumor activity against mouse Sal cells xenografted in BALB/c mouse assessed as tumor growth inhibition at 6 to 25 mg/kg, po BID administered 8 hrs apart measured within 5 days; assay type: functional; conditions: dose mg/kg 6-25
[4] = Antitumor activity against mouse Sal cells xenografted in po dosed BALB/c mouse assessed as minimum effective dose required for complete tumor growth inhibition administered BID 8 hrs apart measured within 5 days; assay type: functional; conditions: read-out: MED
Mus musculus [5] = assay: Toxicity in BALB/c mouse xenografted with mouse Sal cells assessed as change in body weight at 25 mg/kg, po BID administered 8 hrs apart measured within 5 days relative to control; assay type: organism-based; parameters: dose 25 mg/kg, route oral; conditions: in vivo
Mus musculus [6] = assay: Toxicity in BALB/c mouse xenografted with mouse Sal cells assessed as body weight loss at 25 mg/kg, po BID administered 8 hrs apart for 4 consecutive days measured within 5 days; assay type: organism-based; parameters: dose 25 mg/kg, route oral; conditions: in vivo
[7] = Antitumor activity against mouse Sal cells xenografted in BALB/c mouse assessed as tumor growth inhibition at 3.125 mg/kg, po BID for 4 days measured 2 hrs after final dose on day 5; assay type: functional; conditions: read-out: TGI
[8] = Antitumor activity against mouse Sal cells xenografted in BALB/c mouse assessed as tumor growth inhibition at 6.25 mg/kg, po BID for 4 days measured 2 hrs after final dose on day 5; assay type: functional; conditions: read-out: TGI
[9] = Antitumor activity against mouse Sal cells xenografted in BALB/c mouse assessed as tumor growth inhibition at 12.5 mg/kg, po BID for 4 days measured 2 hrs after final dose on day 5; assay type: functional; conditions: read-out: TGI
Mus musculus [10] = assay: Inhibition of IGF1R phosphorylation in po dosed BALB/c mouse xenografted with mouse Sal cells at 3.125 to 12.5 mg/kg, po BID for 4 days measured 2 hrs after final dose on day 5 by Western blot analysis; assay type: functional, organism-based
Mus musculus [11] = assay: Inhibition of Akt phosphorylation in po dosed BALB/c mouse xenografted with mouse Sal cells at 3.125 to 12.5 mg/kg, po BID for 4 days measured 2 hrs after final dose on day 5 by Western blot analysis; assay type: functional, organism-based
[12] = biological target: Insulin receptor (Mus musculus) (UniProt P15208); assay: Inhibition of insulin receptor phosphorylation in mouse Sal cells at 0.003 to 1 uM by Western blotting; assay type: cell-based
Sequence of Insulin receptor (Mus musculus) (P15208 28-748 limits assumed): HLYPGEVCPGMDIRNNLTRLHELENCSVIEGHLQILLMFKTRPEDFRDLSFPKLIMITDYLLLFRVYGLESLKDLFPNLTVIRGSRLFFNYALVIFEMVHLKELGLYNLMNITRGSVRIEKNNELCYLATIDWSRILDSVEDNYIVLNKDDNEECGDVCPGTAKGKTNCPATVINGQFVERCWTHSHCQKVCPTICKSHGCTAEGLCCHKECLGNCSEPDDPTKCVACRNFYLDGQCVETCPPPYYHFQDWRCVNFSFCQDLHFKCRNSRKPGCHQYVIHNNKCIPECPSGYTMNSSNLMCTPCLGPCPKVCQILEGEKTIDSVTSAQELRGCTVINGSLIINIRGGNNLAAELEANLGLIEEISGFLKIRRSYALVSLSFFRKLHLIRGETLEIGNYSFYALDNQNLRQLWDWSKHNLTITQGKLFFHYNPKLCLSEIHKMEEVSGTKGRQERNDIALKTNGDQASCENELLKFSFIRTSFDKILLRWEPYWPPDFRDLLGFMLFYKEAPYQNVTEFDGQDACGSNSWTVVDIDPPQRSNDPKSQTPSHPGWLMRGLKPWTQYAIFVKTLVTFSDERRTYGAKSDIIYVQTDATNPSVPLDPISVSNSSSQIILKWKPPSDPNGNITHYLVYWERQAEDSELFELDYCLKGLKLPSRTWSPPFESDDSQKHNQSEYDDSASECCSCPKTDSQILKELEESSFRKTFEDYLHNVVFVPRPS
Sequence of Insulin receptor (Mus musculus) (P15208 753-1372 limits assumed): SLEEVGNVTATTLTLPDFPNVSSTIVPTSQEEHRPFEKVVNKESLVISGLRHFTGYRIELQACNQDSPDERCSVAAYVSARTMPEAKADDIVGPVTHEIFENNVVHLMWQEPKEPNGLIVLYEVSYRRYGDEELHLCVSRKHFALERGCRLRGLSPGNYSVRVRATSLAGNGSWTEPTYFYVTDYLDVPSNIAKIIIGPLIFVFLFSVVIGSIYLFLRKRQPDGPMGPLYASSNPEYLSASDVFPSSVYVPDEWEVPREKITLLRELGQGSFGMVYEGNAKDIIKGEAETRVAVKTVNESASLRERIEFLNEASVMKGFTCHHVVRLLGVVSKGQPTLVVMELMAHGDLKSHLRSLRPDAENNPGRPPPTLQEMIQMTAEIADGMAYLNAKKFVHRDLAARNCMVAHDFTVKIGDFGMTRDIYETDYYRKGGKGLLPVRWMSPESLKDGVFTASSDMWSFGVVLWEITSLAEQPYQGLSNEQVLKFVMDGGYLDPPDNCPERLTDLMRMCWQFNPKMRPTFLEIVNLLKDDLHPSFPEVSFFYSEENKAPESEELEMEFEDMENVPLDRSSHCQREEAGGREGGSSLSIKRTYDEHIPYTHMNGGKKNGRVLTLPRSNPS

[13] = In vivo antitumor activity against human Rh41 cells assessed as tumor growth inhibition at 12.5 mg/kg BID for 14 consecutive days measured on day 60 post tumor implantation; assay type: functional; conditions: Rh41, 1440 h, read-out: TGI
[14] = biological target: Aurora kinase B (Homo sapiens) (UniProt Q96GD4); assay: Inhibition of Aurora B
[15] = biological target: Macrophage-stimulating protein receptor (Homo sapiens) (UniProt Q04912); assay: Inhibition of Ron
Sequence of Macrophage-stimulating protein receptor (Homo sapiens) (Q04912 25-304 limits assumed): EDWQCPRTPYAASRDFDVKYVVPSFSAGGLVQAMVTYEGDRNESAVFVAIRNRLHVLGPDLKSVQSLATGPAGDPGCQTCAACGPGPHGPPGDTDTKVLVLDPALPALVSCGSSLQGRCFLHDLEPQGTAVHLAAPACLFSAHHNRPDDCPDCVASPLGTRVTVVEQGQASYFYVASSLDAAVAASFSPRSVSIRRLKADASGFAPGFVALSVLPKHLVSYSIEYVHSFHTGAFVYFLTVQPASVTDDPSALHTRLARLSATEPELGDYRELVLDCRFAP
Sequence of Macrophage-stimulating protein receptor (Homo sapiens) (Q04912 310-1400 limits assumed): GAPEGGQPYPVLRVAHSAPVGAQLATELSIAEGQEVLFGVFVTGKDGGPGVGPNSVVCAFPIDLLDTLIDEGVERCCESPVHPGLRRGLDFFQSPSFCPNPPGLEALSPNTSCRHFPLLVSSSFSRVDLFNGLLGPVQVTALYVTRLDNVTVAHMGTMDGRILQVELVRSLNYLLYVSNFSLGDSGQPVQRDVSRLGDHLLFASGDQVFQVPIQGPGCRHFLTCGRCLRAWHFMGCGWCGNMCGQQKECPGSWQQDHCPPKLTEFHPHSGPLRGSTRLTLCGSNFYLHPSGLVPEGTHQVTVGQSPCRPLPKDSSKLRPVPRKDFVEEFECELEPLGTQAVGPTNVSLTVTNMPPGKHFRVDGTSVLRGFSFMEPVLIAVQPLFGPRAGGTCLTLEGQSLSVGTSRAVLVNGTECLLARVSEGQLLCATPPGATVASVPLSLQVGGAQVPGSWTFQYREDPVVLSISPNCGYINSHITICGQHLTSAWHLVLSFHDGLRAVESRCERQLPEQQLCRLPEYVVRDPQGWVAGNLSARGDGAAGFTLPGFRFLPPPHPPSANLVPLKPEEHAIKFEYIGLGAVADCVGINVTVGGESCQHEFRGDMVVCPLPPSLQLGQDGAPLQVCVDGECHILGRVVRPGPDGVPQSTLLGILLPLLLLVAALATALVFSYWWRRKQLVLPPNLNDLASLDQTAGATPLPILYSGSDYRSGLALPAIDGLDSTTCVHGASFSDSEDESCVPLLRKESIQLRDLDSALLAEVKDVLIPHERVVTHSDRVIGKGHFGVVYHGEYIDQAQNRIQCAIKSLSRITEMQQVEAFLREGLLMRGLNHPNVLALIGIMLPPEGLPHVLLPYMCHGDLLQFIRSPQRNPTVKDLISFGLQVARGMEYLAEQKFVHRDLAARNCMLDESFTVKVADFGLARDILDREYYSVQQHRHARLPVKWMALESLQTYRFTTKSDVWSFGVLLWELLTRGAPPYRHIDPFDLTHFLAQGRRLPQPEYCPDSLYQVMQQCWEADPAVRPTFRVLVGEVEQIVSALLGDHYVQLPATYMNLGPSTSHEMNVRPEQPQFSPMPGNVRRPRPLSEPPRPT

[16] = biological target: High affinity nerve growth factor receptor (Homo sapiens) (UniProt P04629); assay: Inhibition of TrkA
[17] = biological target: BDNF/NT-3 growth factors receptor (Homo sapiens) (UniProt Q16620); assay: Inhibition of TrkB
Sequence of BDNF/NT-3 growth factors receptor (Homo sapiens) (Q16620 32-822 limits assumed): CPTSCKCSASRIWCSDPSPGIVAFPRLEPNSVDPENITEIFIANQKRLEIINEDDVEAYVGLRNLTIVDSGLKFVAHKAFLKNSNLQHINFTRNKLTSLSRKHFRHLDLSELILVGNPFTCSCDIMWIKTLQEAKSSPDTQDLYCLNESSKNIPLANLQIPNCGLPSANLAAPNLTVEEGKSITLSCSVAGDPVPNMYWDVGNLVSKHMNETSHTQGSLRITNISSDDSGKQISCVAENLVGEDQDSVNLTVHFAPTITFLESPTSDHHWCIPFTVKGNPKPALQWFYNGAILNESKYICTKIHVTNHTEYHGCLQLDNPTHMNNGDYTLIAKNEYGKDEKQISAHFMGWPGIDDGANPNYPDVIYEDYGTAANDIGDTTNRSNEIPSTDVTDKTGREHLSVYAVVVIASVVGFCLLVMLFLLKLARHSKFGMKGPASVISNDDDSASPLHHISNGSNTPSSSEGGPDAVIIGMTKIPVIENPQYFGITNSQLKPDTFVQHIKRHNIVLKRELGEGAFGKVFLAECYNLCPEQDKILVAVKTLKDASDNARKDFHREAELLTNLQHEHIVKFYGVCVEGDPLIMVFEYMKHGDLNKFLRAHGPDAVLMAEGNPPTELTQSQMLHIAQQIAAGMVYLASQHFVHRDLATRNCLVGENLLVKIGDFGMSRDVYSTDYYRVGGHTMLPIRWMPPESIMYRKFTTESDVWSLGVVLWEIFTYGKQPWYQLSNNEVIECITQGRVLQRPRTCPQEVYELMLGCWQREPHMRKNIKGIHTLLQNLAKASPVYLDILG

[18] = Plasma protein binding in mouse; assay type: ADME, cell-free; conditions: read-out: PPB (converted)
[19] = Permeability by PAMPA; assay type: ADME; conditions: read-out: permeability
[20] = Permeability across human Caco-2 cells; assay type: ADME, cell-based; conditions: read-out: permeability
[21] = Total clearance in iv dosed mouse; assay type: ADME, organism-based; conditions: in vivo
[22] = Total clearance in iv dosed rat; assay type: ADME, organism-based; conditions: in vivo
[23] = Total clearance in iv dosed dog; assay type: ADME, organism-based, Canis lupus familiaris; conditions: in vivo
[24] = Total clearance in iv dosed monkey; assay type: ADME, organism-based, Macaca mulatta; conditions: rhesus monkey, in vivo
[25] = Bioavailability in iv dosed mouse; assay type: ADME, organism-based; conditions: in vivo
[26] = Bioavailability in iv dosed rat; assay type: ADME, organism-based; conditions: in vivo
[27] = Bioavailability in iv dosed dog; assay type: ADME, organism-based, Canis lupus familiaris; conditions: in vivo
[28] = Bioavailability in iv dosed monkey; assay type: ADME, organism-based, Macaca mulatta; conditions: rhesus monkey, in vivo
[29] = biological target: Insulin-like growth factor 1 receptor (Homo sapiens, UniProt P08069); assay: Inhibition of IGF1R after 60 mins by fluorescence electrophoresis

- IC50 [1]: 200 nM
Compound: CN(C(=O)[C@@H]1CCCN1c1nc(Nc2cc(C3CC3)[nH]n2)c2cccn2n1)c1ccccc1

- IC50 [1]: 40 nM
- IC50 (cells): 69 nM
Compound: O=C(Nc1nccs1)[C@@H]1CCCN1c1nc(Nc2cc(C3CC3)[nH]n2)c2cccn2n1

- IC50 [1]: 1420 nM
- IC50 (cells): 426 nM
Compound: Cc1ccc(NC(=O)[C@@H]2CCCN2c2nc(Nc3cc(C4CC4)[nH]n3)c3cccn3n2)cc1

- IC50 [1]: 2 nM
- IC50 (cells): 47 nM
Compound: NC(=O)[C@@H]1CCCN1c1nc(Nc2cc(C3CC3)[nH]n2)c2cccn2n1

- IC50 (Cytochrome P450 2C19): 11000 nM
- IC50 (Cytochrome P450 2C9): 23000 nM
- IC50 (Cytochrome P450 2D6): > 40000 nM
- IC50 (Cytochrome P450 1A2): > 40000 nM
- IC50 [2]: 22 nM
- Activity [12]: Active
- inhibition [14]: Active
- inhibition [15]: Active
- inhibition [16]: Active
- inhibition [17]: Active
- fraction unbound [18]: 0.015
- Papp [19]: 38.7 ×10⁻⁶ cm/s
- Papp [20]: 14.1 ×10⁻⁶ cm/s
- clearance [21]: 113 mL/min/kg
- clearance [22]: 20 mL/min/kg
- clearance [23]: 3.5 mL/min/kg
- clearance [24]: 41 mL/min/kg
- bioavailability [25]: 6%
- bioavailability [26]: 30%
- bioavailability [27]: 59%
- bioavailability [28]: 8%
Compound: C[C@@]1(C(=O)Nc2ccc(F)nc2)CCCN1c1nc(Nc2cc(C3CC3)n[nH]2)c2cccn2n1 [BMS-754807]
- TGI [3]: 102%
- minimal effective dose [4]: 6.25 mg/kg
- Activity (Mus musculus [5]): 0.2 g
- Activity (Mus musculus [6]): > 10%
- inhibition in vivo at 3.125 mg/kg [7]: 80%
- inhibition in vivo at 6.25 mg/kg [8]: 107%
- inhibition in vivo at 12.5 mg/kg [9]: 110%
- inhibition (Mus musculus [10]): Active
- inhibition (Mus musculus [11]): Active
- inhibition in vivo at 12.5 mg/kg [13]: 115%

Compound: C[C@@]1(C(=O)Nc2cnccn2)CCCN1c1nc(Nc2cc(C3CC3)[nH]n2)c2cccn2n1
- TGI [3]: 113%
- minimal effective dose [4]: 6.25 mg/kg
- Activity (Mus musculus [5]): -3.6 g

- IC50 [1]: 322 nM
- IC50 (cells): 133 nM
Compound: O=C(Nc1ccccc1)[C@@H]1CCCN1c1nc(Nc2cc(C3CC3)[nH]n2)c2cccn2n1

- IC50 [29]: 6 nM
- IC50 [1]: 1430 nM
- IC50 (cells): 24 nM
Compound: C[C@@]1(C(=O)Nc2cccnc2)CCCN1c1nc(Nc2cc(C3CC3)[nH]n2)c2cccn2n1
- TGI [3]: 76%
- minimal effective dose [4]: 25 mg/kg
- Activity (Mus musculus [5]): 1.9 g

- IC50 [1]: 577 nM
- IC50 (cells): 39 nM
Compound: O=C(Nc1cccnc1)[C@@H]1CCCN1c1nc(Nc2cc(C3CC3)[nH]n2)c2cccn2n1

Compound: C[C@@]1(C(=O)Nc2nccs2)CCCN1c1nc(Nc2cc(C3CC3)n[nH]2)c2cccn2n1
- TGI [3]: 74%
- minimal effective dose [4]: 12.5 mg/kg
- Activity (Mus musculus [5]): 0.3 g

- IC50 [1]: 24 nM
- IC50 (cells): 310 nM
Compound: NC(=O)[C@H]1CCCN1c1nc(Nc2cc(C3CC3)[nH]n2)c2cccn2n1
